Reference: ChEMBL document CHEMBL4818987, “Recent advances of podophyllotoxin/epipodophyllotoxin hybrids in anticancer activity, mode of action, and structure-activity relationship: An update (2010-2020)” (Eur J Med Chem, 2020)

What was measured:
HeLa [1] = assay: Cytotoxicity against human HeLa cells by MTT assay; format: functional, cell-based
[2] = Resistance index, ratio of IC50 for human K562/AO2 cells to IC50 for human K562 cells; format: functional
K562/A02 [3] = assay: Cytotoxicity against human K562/A02 cells by MTT assay; format: functional, cell-based
K562 [4] = assay: Cytotoxicity against human K562 cells by MTT assay; format: functional, cell-based
K562 [5] = assay: Cytotoxicity against human K562 cells by SRB assay; format: functional, cell-based
KB = assay: Cytotoxicity against human KB cells by MTT assay; format: functional, cell-based
K562/A02 [6] = assay: Cytotoxicity against human K562/A02 cells by SRB assay; format: functional, cell-based
[7] = Cytotoxicity against human KBV cells by MTT assay; format: functional, cell-based
SMMC-7721 [8] = assay: Antiproliferative activity against human SMMC-7721 cells incubated for 48 hrs by MTT assay; format: functional, cell-based; conditions: SMMC-7721, 48 h
SW480 [9] = assay: Antiproliferative activity against human SW480 cells incubated for 48 hrs by MTT assay; format: functional, cell-based; conditions: SW480, 48 h
SMMC-7721 [10] = assay: Potency index, ratio of cisplatin IC50 to test compound IC50 for antiproliferative activity against human SMMC7721 cells; format: functional
A549 [11] = assay: Potency index, ratio of cisplatin IC50 to test compound IC50 for antiproliferative activity against human A549 cells; format: functional
HL-60 = assay: Antiproliferative activity against human HL-60 cells incubated for 48 hrs by MTT assay; format: functional, cell-based; conditions: HL-60, 48 h
SW480 [12] = assay: Potency index, ratio of cisplatin IC50 to test compound IC50 for antiproliferative activity against human SW480 cells; format: functional
MCF7 [13] = assay: Potency index, ratio of cisplatin IC50 to test compound IC50 for antiproliferative activity against human MCF7 cells; format: functional
MCF7 [14] = assay: Antiproliferative activity against human MCF7 cells incubated for 48 hrs by MTT assay; format: functional, cell-based; conditions: MCF7, 48 h
A549 [15] = assay: Antiproliferative activity against human A549 cells incubated for 48 hrs by MTT assay; format: functional, cell-based; conditions: A549, 48 h
HeLa [16] = assay: Antiproliferative activity against human HeLa cells incubated for 48 hrs by MTT assay; format: functional, cell-based
K562 [17] = assay: Antiproliferative activity against human K562 cells incubated for 48 hrs by MTT assay; format: functional, cell-based; conditions: K562, 48 h
K562/Adr [18] = assay: Antiproliferative activity against human K562/ADM cells incubated for 48 hrs by MTT assay; format: functional, cell-based
K562/Adr [19] = assay: Potency index, ratio of etoposide IC50 to test compound IC50 for antiproliferative activity against human K562/ADM cells; format: functional
[20] = Cytotoxicity against human MUM-2B cells incubated for 72 hrs by CCK8 assay; format: functional, cell-based
[21] = Cytotoxicity against human C918 cells incubated for 72 hrs by CCK8 assay; format: functional, cell-based; conditions: C918, 72 h
Huh-7 [22] = assay: Antiproliferative activity against human Huh7 cells incubated for 48 hrs by MTT assay; format: functional, cell-based; conditions: Huh-7, 48 h
HeLa [23] = assay: Potency index, ratio of etoposide IC50 to test compound IC50 for antiproliferative activity against human HeLa cells; format: functional
A549 [24] = assay: Potency index, ratio of etoposide IC50 to test compound IC50 for antiproliferative activity against human A549 cells; format: functional
Huh-7 [25] = assay: Potency index, ratio of etoposide IC50 to test compound IC50 for antiproliferative activity against human Huh-7 cells; format: functional
BGC-823 [26] = assay: Antiproliferative activity against human BGC-823 cells incubated for 48 hrs by MTT assay; format: functional, cell-based; conditions: BGC-823, 48 h
BGC-823 [27] = assay: Potency index, ratio of etoposide IC50 to test compound IC50 for antiproliferative activity against human BGC-823 cells; format: functional
MCF7 [28] = assay: Potency index, ratio of etoposide IC50 to test compound IC50 for antiproliferative activity against human MCF7 cells; format: functional
K562/Adr [29] = assay: Antiproliferative activity against human K562/ADR cells; format: functional, cell-based
[30] = Selectivity index, ratio of IC50 for human HFF cells to IC50 for human A549 cells; format: toxicity; conditions: pooled result: one value given for 20 cell lines, strains, targets or settings, read-out: Ratio IC50
HCT-116 = assay: Antiproliferative activity against human HCT116 cells; format: functional, cell-based
SMMC-7721 [31] = assay: Antiproliferative activity against human SMMC-7721 cells; format: functional, cell-based
U-251 = assay: Antiproliferative activity against human U251 cells; format: functional, cell-based
L02 = assay: Cytotoxicity against human HL7702 cells; format: cell-based
LNCaP = assay: Antiproliferative activity against human LNCaP cells; format: functional, cell-based
HFF = assay: Cytotoxicity against human HFF cells; format: cell-based
SK-BR-3 = assay: Antiproliferative activity against human SK-BR-3 cells; format: functional, cell-based
K562 [32] = assay: Antiproliferative activity against human K562 cells; format: functional, cell-based

## COc1cc([C@@H]2c3cc4c(cc3[C@@H](c3c[nH]c5ccc(OCc6ccc(C(C)(C)C)cc6)cc35)[C@H]3COC(=O)[C@H]23)OCO4)cc(OC)c1OC
HeLa [1]
  IC50: > 260 nM
[2]
  Ratio IC50: 0.004
K562/A02 [3]
  IC50: 289 nM
K562 [4]
  IC50: > 260 nM

## COC(=O)c1cccc2c1c(C(=O)C(=O)N[C@@H]1c3cc4c(cc3[C@@H](c3cc(OC)c(OC)c(OC)c3)[C@H]3C(=O)OC[C@@H]31)OCO4)cn2C(=O)c1ccccc1
K562 [5]
  IC50: 150 nM
HeLa [1]
  IC50: 150 nM
KB
  IC50: 3160 nM
K562/A02 [6]
  IC50: 150 nM
[7]
  IC50: 150 nM

## COc1cc([C@@H]2c3cc4c(cc3[C@@H](NC(=O)C(=O)c3c[nH]c5ccc(C(=O)NC(C)C)cc35)[C@H]3COC(=O)[C@H]23)OCO4)cc(OC)c1OC
K562/A02 [3]
  IC50: 1270 nM
K562 [4]
  IC50: 1270 nM

## CCCC(=O)O[C@@H]1[C@@H](OC(=O)CCC)[C@@H](O[C@@H]2c3cc4c(cc3[C@@H](c3cc(OC)c(OC)c(OC)c3)[C@H]3C(=O)OC[C@@H]32)OCO4)OC[C@H]1OC(=O)CCC
SMMC-7721 [8]
  IC50: > 2900 nM
SW480 [9]
  IC50: > 2900 nM
SMMC-7721 [10]
  Ratio IC50: 1.9
A549 [11]
  Ratio IC50: 1.9
HL-60
  IC50: 140 nM
SW480 [12]
  Ratio IC50: 1.9
MCF7 [13]
  Ratio IC50: 1.9
MCF7 [14]
  IC50: > 2900 nM
A549 [15]
  IC50: > 2900 nM

## COc1cc([C@@H]2c3cc4c(cc3[C@@H](n3cnc([N+](=O)[O-])c3)[C@H]3COC(=O)[C@H]23)OCO4)cc(OC)c1O
HeLa [16]
  IC50: 8120 nM
K562 [17]
  IC50: 4160 nM
K562/Adr [18]
  IC50: 4160 nM
K562/Adr [19]
  Ratio IC50: 18.4

## COc1cc(/C=C/c2ccc(OCCC(=O)O[C@H]3c4cc5c(cc4[C@@H](c4cc(OC)c(OC)c(OC)c4)[C@H]4C(=O)OC[C@@H]43)OCO5)cc2)cc(OC)c1
[20]
  IC50: 81 nM
[21]
  IC50: 81 nM

## COc1cc([C@@H]2c3cc4c(cc3[C@@H](Nc3ncccc3F)[C@H]3COC(=O)[C@H]23)OCO4)cc(OC)c1OC
Huh-7 [22]
  IC50: 60 nM
HeLa [16]
  IC50: 60 nM
HeLa [23]
  Ratio IC50: 3.3
A549 [24]
  Ratio IC50: 3.3
Huh-7 [25]
  Ratio IC50: 3.3
MCF7 [14]
  IC50: 60 nM
A549 [15]
  IC50: 60 nM
BGC-823 [26]
  IC50: 60 nM
BGC-823 [27]
  Ratio IC50: 3.3
MCF7 [28]
  Ratio IC50: 3.3

## COC(=O)c1ccc(-c2cn(CC(=O)O[C@H]3c4cc5c(cc4[C@@H](c4cc(OC)c(OC)c(OC)c4)[C@H]4C(=O)OC[C@@H]43)OCO5)nn2)cc1
K562/Adr [29]
  IC50: 19.6 nM
[30]
  selectivity ratio: 3.5
HCT-116
  IC50: 19.6 nM
SMMC-7721 [31]
  IC50: 19.6 nM
U-251
  IC50: 19.6 nM
L02
  IC50: 565 nM
LNCaP
  IC50: 19.6 nM
HFF
  IC50: 195 nM
SK-BR-3
  IC50: 19.6 nM
K562 [32]
  IC50: 19.6 nM

## COc1cc([C@@H]2c3cc4c(cc3[C@@H](Nc3ncccc3F)[C@H]3COC(=O)[C@H]23)OCO4)cc(OC)c1O
Huh-7 [22]
  IC50: 60 nM
HeLa [23]
  Ratio IC50: 3.3
A549 [24]
  Ratio IC50: 3.3
Huh-7 [25]
  Ratio IC50: 3.3
MCF7 [14]
  IC50: 60 nM
A549 [15]
  IC50: 60 nM
BGC-823 [26]
  IC50: 60 nM
BGC-823 [27]
  Ratio IC50: 3.3
MCF7 [28]
  Ratio IC50: 3.3
